Data from ChEMBL document CHEMBL3621135 (ACS Med Chem Lett, 2015).
pIC50, pKd: −log10 of the molar value. Activity calls are given as the source filed them. The rule behind the calls is not given here.

Key:
[1] = AUC (0 to 24 hrs) in dog; type: ADME, organism-based, Canis lupus familiaris; design: time < 24 hr; conditions: in vivo
[2] = Clearance in cynomolgus monkey at 1 mg/kg, iv and 1 mg/kg, po; type: ADME, organism-based, Macaca fascicularis; conditions: in vivo
MIA PaCa-2 = experiment: Antiproliferative activity against human MIAPaCa2 cells incubated for 72 hrs by [3H] thymidine incorporation assay; type: functional, cell-based
[3] = Volume of distribution at steady state in dog at 0.2 mg/kg, iv and 0.2 mg/kg, po; type: ADME, organism-based, Canis lupus familiaris; conditions: in vivo, read-out: Vdss
[4] = Half in rat liver microsomes; type: ADME
hERG = hERG (Homo sapiens, UniProt Q12809); experiment: Inhibition of human ERG at 30 uM by patch clamp assay
Rattus norvegicus [5] = experiment: Reduction in red blood cell mass in rat at 15 mg/kg/day for 2 weeks; type: functional, organism-based
[6] = Toxicity against human HepG2 cells; type: cell-based
Phosphodiesterase 4 = Phosphodiesterase 4 (Homo sapiens, UniProt P27815+Q08499+Q07343+Q08493); experiment: Inhibition of PDE4 (unknown origin); type: protein assay
[7] = Half life in mouse at 2 mg/kg, iv and 10 mg/kg, po; type: ADME, organism-based; conditions: in vivo
[8] = Permeability of the compound in pH 7.4 solution by PAMPA method; type: physicochemical; conditions: read-out: permeability
[9] = target: T1, Tyrosine-protein kinase JAK2 (Homo sapiens, UniProt O60674); experiment: Inhibition of JAK2 in human SET2 cells assessed as reduction in STAT5 phosphorylation incubated for 2 hrs by Western blot method; type: cell-based
Homo sapiens = species on record: Homo sapiens; experiment: Inhibition of sodium channel (unknown origin) at 10 uM at 1 and 4 Hz stimulation by patch clamp assay
[10] = Antiproliferative activity against mouse CTLL-2 cells incubated for 72 hrs by [3H] thymidine incorporation assay; type: functional, cell-based
[11] = Half life in cynomolgus monkey at 1 mg/kg, iv and 1 mg/kg, po; type: ADME, organism-based, Macaca fascicularis; conditions: in vivo
[12] = Half in dog liver microsomes; type: ADME, Canis lupus familiaris
[13] = AUC (0 to 8 hrs) in mouse pharamcodynamic model at 5 mg/kg, po; type: ADME, organism-based; design: dose 5 mg/kg, time < 8 hr, route oral; conditions: in vivo
Mus musculus [14] = experiment: Inhibition of JAK2 V617F mutant in mouse pharamcodynamic model expressing JAK2 V617F mutant assessed as reduction in STAT5 phosphorylation at 2 mg/kg, po measured up to 7 hrs; type: functional, organism-based
[15] = Antiproliferative activity against human SET2 cells incubated for 72 hrs by [3H] thymidine incorporation assay; type: functional, cell-based; conditions: SET-2
Mus musculus [16] = experiment: Inhibition of JAK2 in mouse pharamcodynamic model assessed as reduction in STAT5 phosphorylation at 10 mg/kg, po measured up to 18 hrs; type: functional
JAK3/JAK1 = JAK3/JAK1 (Homo sapiens, UniProt P23458+P52333); experiment: Inhibition of JAK1/JAK3 in T cells (unknown origin) assessed as reduction in IL2-mediated cell proliferation; type: cell-based
BaF3 = experiment: Antiproliferative activity against IL3-stimulated mouse BAF3 cells incubated for 72 hrs by [3H] thymidine incorporation assay; type: functional, cell-based
[17] = Half in human liver microsomes; type: ADME
[18] = target: T1, Tyrosine-protein kinase JAK2; experiment: Binding affinity to JAK2 (unknown origin) assessed as dissociation constant
Cytochrome P450 1A2 = target: T2, Cytochrome P450 1A2 (Homo sapiens, UniProt P05177); experiment: Inhibition of CYP1A2 in human liver microsomes; type: ADME
T2 sequence (P05177 whole entry): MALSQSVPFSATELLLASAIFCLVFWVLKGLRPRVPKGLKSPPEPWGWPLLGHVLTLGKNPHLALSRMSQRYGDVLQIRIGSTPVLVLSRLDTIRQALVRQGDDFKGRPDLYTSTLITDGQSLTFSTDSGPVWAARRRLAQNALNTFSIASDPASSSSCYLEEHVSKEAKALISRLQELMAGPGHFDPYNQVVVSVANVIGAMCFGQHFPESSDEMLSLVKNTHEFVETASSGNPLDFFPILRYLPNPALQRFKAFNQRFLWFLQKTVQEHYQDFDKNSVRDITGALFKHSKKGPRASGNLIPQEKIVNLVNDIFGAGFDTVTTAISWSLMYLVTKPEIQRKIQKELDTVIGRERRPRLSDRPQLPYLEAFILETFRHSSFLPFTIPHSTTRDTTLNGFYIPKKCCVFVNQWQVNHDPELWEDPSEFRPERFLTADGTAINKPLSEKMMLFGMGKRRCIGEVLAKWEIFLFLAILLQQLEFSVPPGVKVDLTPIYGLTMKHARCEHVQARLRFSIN

A549 = experiment: Antiproliferative activity against human A549 cells incubated for 72 hrs by [3H] thymidine incorporation assay; type: functional, cell-based
[19] = Clearance in dog at 0.2 mg/kg, iv and 0.2 mg/kg, po; type: ADME, organism-based, Canis lupus familiaris; conditions: in vivo
[20] = Volume of distribution at steady state in rat at 1 mg/kg, iv and 1 mg/kg, po; type: ADME, organism-based; conditions: in vivo, read-out: Vdss
[21] = Half life in rat at 1 mg/kg, iv and 1 mg/kg, po; type: ADME, organism-based; conditions: in vivo
[22] = Volume of distribution at steady state in mouse at 2 mg/kg, iv and 10 mg/kg, po; type: ADME, organism-based; conditions: in vivo, read-out: Vdss
[23] = Inhibition of calcium channel (unknown origin) by patch clamp assay; design: species or system Homo sapiens
[24] = Half life in dog at 0.2 mg/kg, iv and 0.2 mg/kg, po; type: ADME, organism-based, Canis lupus familiaris; conditions: in vivo
[25] = AUC (0 to 8 hrs) in mouse pharamcodynamic model at 30 mg/kg, po; type: ADME, organism-based; design: dose 30 mg/kg, time < 8 hr, route oral; conditions: in vivo
Rattus norvegicus [26] = experiment: Toxicity in rat assessed as drug tolerability up to 100 mg/kg; type: organism-based; conditions: in vivo
[27] = Oral bioavailability in dog at 0.2 mg/kg; type: ADME, organism-based, Canis lupus familiaris; conditions: in vivo
Mus musculus [28] = experiment: AUC (0 to 8 hrs) in mouse pharamcodynamic model at 10 mg/kg, po; type: ADME, organism-based; design: dose 10 mg/kg, time < 8 hr, route oral; conditions: in vivo
Rattus norvegicus [29] = experiment: Toxicity in rat assessed as drug tolerability at 15 mg/kg/day for 2 weeks; type: organism-based; conditions: in vivo, 336 h
[30] = Oral bioavailability in rat at 1 mg/kg; type: ADME, organism-based; conditions: in vivo
[31] = Volume of distribution at steady state in cynomolgus monkey at 1 mg/kg, iv and 1 mg/kg, po; type: ADME, organism-based, Macaca fascicularis; conditions: in vivo, read-out: Vdss

T1 sequence (O60674 whole entry): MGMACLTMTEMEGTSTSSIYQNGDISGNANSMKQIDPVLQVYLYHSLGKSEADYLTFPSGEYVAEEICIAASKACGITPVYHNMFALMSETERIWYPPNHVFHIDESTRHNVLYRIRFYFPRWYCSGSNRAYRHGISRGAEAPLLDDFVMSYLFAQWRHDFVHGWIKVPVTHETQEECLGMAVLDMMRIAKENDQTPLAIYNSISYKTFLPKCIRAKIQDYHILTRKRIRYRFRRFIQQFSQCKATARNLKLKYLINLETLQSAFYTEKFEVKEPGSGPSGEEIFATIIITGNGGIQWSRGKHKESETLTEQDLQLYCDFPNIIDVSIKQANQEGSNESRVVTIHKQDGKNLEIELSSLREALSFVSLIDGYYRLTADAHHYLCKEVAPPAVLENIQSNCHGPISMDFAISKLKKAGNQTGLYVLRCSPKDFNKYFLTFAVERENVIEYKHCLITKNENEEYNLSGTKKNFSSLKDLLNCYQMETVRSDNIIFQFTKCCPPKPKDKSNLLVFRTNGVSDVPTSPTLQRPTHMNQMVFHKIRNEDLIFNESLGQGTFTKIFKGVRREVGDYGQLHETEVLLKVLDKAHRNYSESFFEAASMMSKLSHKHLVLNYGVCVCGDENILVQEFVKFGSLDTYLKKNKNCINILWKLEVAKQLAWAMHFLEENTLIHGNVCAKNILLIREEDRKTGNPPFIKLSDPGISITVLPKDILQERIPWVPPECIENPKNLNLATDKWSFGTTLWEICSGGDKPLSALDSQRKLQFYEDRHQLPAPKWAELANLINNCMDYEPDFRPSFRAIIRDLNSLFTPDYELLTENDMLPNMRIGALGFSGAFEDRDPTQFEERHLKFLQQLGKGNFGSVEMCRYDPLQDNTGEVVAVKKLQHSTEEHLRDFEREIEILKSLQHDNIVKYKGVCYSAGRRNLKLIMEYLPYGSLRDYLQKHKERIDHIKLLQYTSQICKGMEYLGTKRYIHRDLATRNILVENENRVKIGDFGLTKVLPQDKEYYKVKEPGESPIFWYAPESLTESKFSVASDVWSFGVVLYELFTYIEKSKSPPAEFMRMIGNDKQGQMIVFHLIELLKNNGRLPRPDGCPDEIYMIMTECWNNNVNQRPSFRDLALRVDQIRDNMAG
hERG, sequence (Q12809 whole entry): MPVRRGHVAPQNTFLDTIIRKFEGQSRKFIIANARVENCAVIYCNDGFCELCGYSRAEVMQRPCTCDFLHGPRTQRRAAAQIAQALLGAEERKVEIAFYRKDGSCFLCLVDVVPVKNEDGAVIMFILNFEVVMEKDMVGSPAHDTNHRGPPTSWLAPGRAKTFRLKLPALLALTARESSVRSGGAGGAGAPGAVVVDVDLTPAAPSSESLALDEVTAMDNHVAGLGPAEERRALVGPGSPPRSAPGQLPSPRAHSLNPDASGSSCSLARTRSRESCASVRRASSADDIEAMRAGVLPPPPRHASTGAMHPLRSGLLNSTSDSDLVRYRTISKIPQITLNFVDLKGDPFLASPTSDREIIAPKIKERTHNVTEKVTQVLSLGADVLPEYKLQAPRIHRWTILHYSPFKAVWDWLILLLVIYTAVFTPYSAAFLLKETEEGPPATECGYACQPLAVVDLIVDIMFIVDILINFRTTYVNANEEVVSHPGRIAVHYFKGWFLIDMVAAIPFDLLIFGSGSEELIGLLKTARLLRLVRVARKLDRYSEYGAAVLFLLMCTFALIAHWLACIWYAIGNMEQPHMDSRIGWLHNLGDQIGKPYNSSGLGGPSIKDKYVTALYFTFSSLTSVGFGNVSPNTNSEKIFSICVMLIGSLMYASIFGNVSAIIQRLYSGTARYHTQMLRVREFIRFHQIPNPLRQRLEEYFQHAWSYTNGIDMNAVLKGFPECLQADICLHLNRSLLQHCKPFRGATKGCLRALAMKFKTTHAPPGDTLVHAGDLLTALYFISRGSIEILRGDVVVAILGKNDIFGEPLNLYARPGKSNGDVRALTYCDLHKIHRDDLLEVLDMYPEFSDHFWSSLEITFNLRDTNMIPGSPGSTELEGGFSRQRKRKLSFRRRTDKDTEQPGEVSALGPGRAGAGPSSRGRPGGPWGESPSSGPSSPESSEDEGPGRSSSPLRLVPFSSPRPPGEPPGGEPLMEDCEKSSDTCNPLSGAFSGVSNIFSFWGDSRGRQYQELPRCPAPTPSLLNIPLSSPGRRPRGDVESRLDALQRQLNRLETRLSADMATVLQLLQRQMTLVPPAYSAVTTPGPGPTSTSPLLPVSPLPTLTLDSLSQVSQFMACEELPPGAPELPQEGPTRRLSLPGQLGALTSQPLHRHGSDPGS
JAK3/JAK1, sequence (P52333 whole entry): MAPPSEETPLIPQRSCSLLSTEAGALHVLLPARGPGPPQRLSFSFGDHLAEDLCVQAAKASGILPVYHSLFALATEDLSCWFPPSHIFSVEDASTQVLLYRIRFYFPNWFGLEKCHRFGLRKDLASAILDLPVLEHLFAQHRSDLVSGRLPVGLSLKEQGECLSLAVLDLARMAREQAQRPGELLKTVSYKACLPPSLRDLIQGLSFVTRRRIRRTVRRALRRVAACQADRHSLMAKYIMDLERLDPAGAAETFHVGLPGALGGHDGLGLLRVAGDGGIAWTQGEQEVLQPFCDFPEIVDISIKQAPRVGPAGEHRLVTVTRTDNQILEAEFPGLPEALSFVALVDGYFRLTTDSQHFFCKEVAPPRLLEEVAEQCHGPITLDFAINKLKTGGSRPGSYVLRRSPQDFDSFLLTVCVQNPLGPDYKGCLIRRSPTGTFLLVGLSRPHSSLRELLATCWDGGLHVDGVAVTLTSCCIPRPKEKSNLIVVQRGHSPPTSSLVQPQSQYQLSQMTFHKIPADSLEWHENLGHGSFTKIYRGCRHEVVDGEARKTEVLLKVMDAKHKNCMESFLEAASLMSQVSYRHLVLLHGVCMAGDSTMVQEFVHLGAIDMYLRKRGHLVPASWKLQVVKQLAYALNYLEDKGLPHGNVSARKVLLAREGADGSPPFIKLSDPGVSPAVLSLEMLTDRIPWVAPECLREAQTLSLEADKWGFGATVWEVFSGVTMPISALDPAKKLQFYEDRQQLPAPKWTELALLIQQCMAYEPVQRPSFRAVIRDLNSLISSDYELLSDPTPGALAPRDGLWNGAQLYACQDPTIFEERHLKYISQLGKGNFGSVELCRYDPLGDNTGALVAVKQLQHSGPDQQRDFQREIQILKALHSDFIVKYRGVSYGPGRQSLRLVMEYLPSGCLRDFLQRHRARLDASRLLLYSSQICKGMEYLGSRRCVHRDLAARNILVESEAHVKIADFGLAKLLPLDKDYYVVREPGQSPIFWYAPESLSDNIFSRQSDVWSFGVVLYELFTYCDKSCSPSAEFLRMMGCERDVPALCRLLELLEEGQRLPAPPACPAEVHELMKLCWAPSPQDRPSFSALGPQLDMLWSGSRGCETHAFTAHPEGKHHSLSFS
JAK3/JAK1, sequence (P23458 whole entry): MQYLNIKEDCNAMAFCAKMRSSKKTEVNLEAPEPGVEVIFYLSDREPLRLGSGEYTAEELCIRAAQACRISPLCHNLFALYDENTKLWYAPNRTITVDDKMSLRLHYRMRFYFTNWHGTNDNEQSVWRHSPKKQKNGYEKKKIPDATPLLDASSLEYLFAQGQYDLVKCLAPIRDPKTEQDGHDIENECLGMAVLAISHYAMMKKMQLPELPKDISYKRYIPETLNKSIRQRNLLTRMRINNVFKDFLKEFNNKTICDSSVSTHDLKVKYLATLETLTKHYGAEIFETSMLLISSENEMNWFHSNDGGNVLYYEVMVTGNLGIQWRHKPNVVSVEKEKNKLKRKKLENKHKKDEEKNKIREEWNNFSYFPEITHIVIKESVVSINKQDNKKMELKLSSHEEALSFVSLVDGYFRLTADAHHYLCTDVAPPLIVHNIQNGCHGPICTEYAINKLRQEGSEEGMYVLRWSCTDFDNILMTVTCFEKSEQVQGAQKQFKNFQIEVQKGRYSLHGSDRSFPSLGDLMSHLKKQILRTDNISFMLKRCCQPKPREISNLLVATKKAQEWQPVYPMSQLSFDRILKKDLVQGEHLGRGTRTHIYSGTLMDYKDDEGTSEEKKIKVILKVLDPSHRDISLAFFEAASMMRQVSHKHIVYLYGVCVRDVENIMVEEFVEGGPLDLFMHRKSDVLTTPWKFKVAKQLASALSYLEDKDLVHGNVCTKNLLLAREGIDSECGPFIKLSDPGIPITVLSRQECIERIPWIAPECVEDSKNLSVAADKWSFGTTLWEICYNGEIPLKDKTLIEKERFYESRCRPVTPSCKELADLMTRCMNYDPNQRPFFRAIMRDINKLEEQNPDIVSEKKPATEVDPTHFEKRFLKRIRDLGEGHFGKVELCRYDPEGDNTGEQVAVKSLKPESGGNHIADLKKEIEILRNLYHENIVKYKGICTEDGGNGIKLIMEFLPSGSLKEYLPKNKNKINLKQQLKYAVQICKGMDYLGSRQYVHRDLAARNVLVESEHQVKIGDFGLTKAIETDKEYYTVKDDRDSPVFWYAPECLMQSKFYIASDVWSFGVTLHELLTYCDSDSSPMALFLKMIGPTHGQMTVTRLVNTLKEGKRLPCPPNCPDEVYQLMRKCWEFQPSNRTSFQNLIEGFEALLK

## CCn1c(C(=O)N(C2CC2)C2CC2)cc2c3c(ncn3C)c(Nc3cc(C)n(C)n3)nc21 [BMS-911543]
[1]
  AUC(0-t) at 24 h: 610 µM·h
[2]
  clearance: 5.3 mL/min/kg
MIA PaCa-2
  Activity: inactive
[3]
  Vd: 1.6 L/kg
[4]
  half-life: 1.15 h
hERG
  inhibition at 30 µM: 20%
Rattus norvegicus [5]
  Activity: Active
[6]
  pIC50: < 4.30
Phosphodiesterase 4
  IC50: 5600 nM
[7]
  half-life: 5.1 h
[8]
  Papp: 69.8 ×10⁻⁶ cm/s
[9]
  pIC50: 7.10
Homo sapiens
  inhibition: < 10%
[10]
  pIC50: 5.54
[11]
  half-life: 2.4 h
[12]
  half-life: 1.17 h
[13]
  AUC(0-t) at 8 h: 23 µM·h
Mus musculus [14]
  inhibition: Active
[15]
  pIC50: 7.22
Mus musculus [16]
  inhibition in vivo at 10 mg/kg: 65%
JAK3/JAK1
  pIC50: 6.00
BaF3
  pIC50: 5.46
[17]
  half-life: 0.817 h
[18]
  pKd: 9.32
Cytochrome P450 1A2
  pIC50: 6.00
A549
  pIC50: 5.62
[19]
  clearance: 6.5 mL/min/kg
[20]
  Vd: 0.3 L/kg
[21]
  half-life: 5 h
[22]
  Vd: 0.26 L/kg
[23]
  pIC50: < 4.10
[24]
  half-life: 2.2 h
[25]
  AUC(0-t) at 8 h: 109 µM·h
Rattus norvegicus [26]
  Activity: Non-toxic
[27]
  bioavailability: 82%
Mus musculus [28]
  AUC: 41 µM·h
Rattus norvegicus [29]
  Activity: Non-toxic
[30]
  bioavailability: 100%
[31]
  Vd: 1.1 L/kg
